Source: patent US8541373B2, “BChE albumin fusions for the treatment of cocaine abuse” (priority 2009, dated 2013)
“And” between values parts separate entries of the source, which are not always exact repeats. Identical values can stand only once.

What was measured:
cocaine = test: Plasma cocaine, ecgonine methyl ester and benzoylecgonine after IV cocaine post-AlbuBChE; type: in vivo, Squirrel monkeys; conditions: for Benzoylecgonine Plasma Concentration, Mean / Cocaine Plasma Concentration, Mean / Ecgonine methyl ester plasma concentration (mean): mean n=3
Procedure: Blood was placed into K2EDTA blood collection tubes with esterase inhibitor (diisopropylfluorophosphate (DFP). Tubes were inverted several times and placed on wet ice upon collection. Samples were centrifuged at 2-8° C. within 45 minutes of collection. The resultant plasma will be recovered and a single 200 μL aliquot of plasma was placed into polypropylene tubes. Plasma samples was frozen over dry ice and stored at approximately −70° C.
The bioanalytical method measured the plasma concentration of cocaine and two of its metabolites: ecgonine methyl ester and benzoylecgonine. Cocaine metabolic pathway is shown in FIG. 9, ecgonine methyl ester metabolite is formed directly from cocaine through the butrylcholine esterase enzyme. As such, this metabolite can be predicted to increase following AlbuBChE administration.
The blood level data were analyzed separately for each metabolite and time point (5 or 30 min). A one-way analysis-of-variance (ANOVA) was performed with follow-up Dunnett tests using the results of monkeys treated with vehicle as the control. The self-administration data were analyzed separately for response rate or injections following either vehicle treatment or AlbuBChE treatment. Control data were included in the analysis by taking the average of the last 3 days for the immediately preceding baseline condition. A within subjects ANOVA was then performed with follow-up tests contrasting days following vehicle or AlbuBChE with the control. For the reinstatement tests, a two-way ANOVA was performed for both response rate and injections, with time post vehicle or AlbuBChE as the within-subjects factor and pretreatment (vehicle or AlbuBChE) as the between subjects factor. Follow-up contrast compared vehicle and AlbuBChE at each time point.

[1] = AlbuBChE antibodies and blood level after repeated AlbuBChE injections
From the text: The monkeys trained to self-administer cocaine and also tested on the reinstatement procedure received a total of 4 injections of AlbuBChE. Blood was taken for determination of AlbuBChE antibodies after the first, second and fourth AlbuBChE injections.

[2] = tested on: cocaine subjective effects; test: Clinical study: subjective effects of cocaine (visual analogue scale); type: in vivo, human; conditions: humans
Procedure: Subjective effects are measured using a computerized (21 CFR 11 validated) visual analogue scale (VAS). The time points for collection of subjective effects match with those for cocaine blood samples. The following set of VAS are: Drug Liking, Take Drug Again, Overall Drug Liking, High, Good Effects, Bad Effects, Feeling Rush, Desire for Cocaine, Feeling Anxious, Over-Stimulated, and Any Drug Effects.
PD sampling timepoints of VAS parameters after each cocaine dose are as follows: pre-dose, 2, 5, 10, 15, 30, 45, 60, 90, and 120 minutes post dose.

[3] = 5 min after cocaine 1 mg/kg IV given 2 hr post-AlbuBChE 5 mg/kg IM, individual monkeys 547, 3434, 53B
[4] = 5 min after cocaine 1 mg/kg IV given 72 hr post-AlbuBChE 5 mg/kg IM, individual monkeys
[5] = 5 min after cocaine 1 mg/kg IV given 96 hr post-AlbuBChE 5 mg/kg IM, individual monkeys
[6] = 5 min after cocaine 1 mg/kg IV, 2 hr post-AlbuBChE 5 mg/kg IM
[7] = 5 min after cocaine 1 mg/kg IV, 72 hr post-AlbuBChE 5 mg/kg IM
[8] = 5 min after cocaine 1 mg/kg IV, 96 hr post-AlbuBChE 5 mg/kg IM
[9] = 30 min after cocaine 1 mg/kg IV given 2 hr post-AlbuBChE 5 mg/kg IM, individual monkeys
[10] = 30 min after cocaine 1 mg/kg IV given 72 hr post-AlbuBChE 5 mg/kg IM, individual monkeys
[11] = 30 min after cocaine 1 mg/kg IV given 96 hr post-AlbuBChE 5 mg/kg IM, individual monkeys
[12] = 30 min after cocaine 1 mg/kg IV, 2 hr post-AlbuBChE 5 mg/kg IM
[13] = 30 min after cocaine 1 mg/kg IV, 72 hr post-AlbuBChE 5 mg/kg IM
[14] = 30 min after cocaine 1 mg/kg IV, 96 hr post-AlbuBChE 5 mg/kg IM

AlbuBChE
Ecgonine methyl ester concentration increase over control (cocaine; 5 mg/kg IM, 2 hr post-AlbuBChE, 5 min after cocaine): ~40 fold
Cocaine concentration relative to control (cocaine; 5 mg/kg IM, cocaine 1 mg/kg IV 96 hr post-AlbuBChE): 60 % of control
Benzoylecgonine Plasma Concentration (cocaine; [3]): 4.83 ng/mL and 23.3 ng/mL and 20.1 ng/mL
Cocaine Plasma Concentration (cocaine; [3]): 0.575 ng/mL and 20.0 ng/mL and 22.4 ng/mL
Ecgonine Methyl Ester Plasma Concentration (cocaine; [3]): 109 ng/mL and 417 ng/mL and 333 ng/mL
Benzoylecgonine Plasma Concentration (cocaine; [4]): 9.93 ng/mL and 41.7 ng/mL and 28.8 ng/mL
Cocaine Plasma Concentration (cocaine; [4]): 41.3 ng/mL and 176 ng/mL and 104 ng/mL
Ecgonine Methyl Ester Plasma Concentration (cocaine; [4]): 29.3 ng/mL and 101 ng/mL and 73.2 ng/mL
Benzoylecgonine Plasma Concentration (cocaine; [5]): 15.5 ng/mL and 36.2 ng/mL and 26.3 ng/mL
Cocaine Plasma Concentration (cocaine; [5]): 97.9 ng/mL and 191 ng/mL and 112 ng/mL
Ecgonine Methyl Ester Plasma Concentration (cocaine; [5]): 40.5 ng/mL and 72.3 ng/mL and 35.8 ng/mL
Benzoylecgonine Plasma Concentration, Mean (cocaine; [6]): 16.1 ng/mL
Cocaine Plasma Concentration, Mean (cocaine; [6]): 14.3 ng/mL
Ecgonine methyl ester plasma concentration (mean) (cocaine; [6]): 286 ng/mL
Benzoylecgonine Plasma Concentration, Mean (cocaine; [7]): 26.8 ng/mL
Cocaine Plasma Concentration, Mean (cocaine; [7]): 107 ng/mL
Ecgonine methyl ester plasma concentration (mean) (cocaine; [7]): 67.8 ng/mL
Benzoylecgonine Plasma Concentration, Mean (cocaine; [8]): 26.0 ng/mL
Cocaine Plasma Concentration, Mean (cocaine; [8]): 134 ng/mL
Ecgonine methyl ester plasma concentration (mean) (cocaine; [8]): 49.5 ng/mL
Benzoylecgonine Plasma Concentration (cocaine; [9]): 11.1 ng/mL and 20.8 ng/mL and 10.9 ng/mL
Cocaine Plasma Concentration (cocaine; [9]): 0.581 ng/mL and 0.115 ng/mL and 0.261 ng/mL
Ecgonine Methyl Ester Plasma Concentration (cocaine; [9]): 252 ng/mL and 314 ng/mL and 218 ng/mL
Benzoylecgonine Plasma Concentration (cocaine; [10]): 20.7 ng/mL and 33.4 ng/mL and 21 ng/mL
Cocaine Plasma Concentration (cocaine; [10]): 65.0 ng/mL and 57.9 ng/mL and 44.9 ng/mL
Ecgonine Methyl Ester Plasma Concentration (cocaine; [10]): 61.3 ng/mL and 112 ng/mL and 81.7 ng/mL
Benzoylecgonine Plasma Concentration (cocaine; [11]): 18.9 ng/mL and 37.6 ng/mL and 21.5 ng/mL
Cocaine Plasma Concentration (cocaine; [11]): 62.9 ng/mL and 75.6 ng/mL and 67.1 ng/mL
Ecgonine Methyl Ester Plasma Concentration (cocaine; [11]): 25.7 ng/mL and 76.8 ng/mL and 45.2 ng/mL
Benzoylecgonine Plasma Concentration, Mean (cocaine; [12]): 14.3 ng/mL
Cocaine Plasma Concentration, Mean (cocaine; [12]): 0.319 ng/mL
Ecgonine methyl ester plasma concentration (mean) (cocaine; [12]): 261 ng/mL
Benzoylecgonine Plasma Concentration, Mean (cocaine; [13]): 25.0 ng/mL
Cocaine Plasma Concentration, Mean (cocaine; [13]): 55.9 ng/mL
Ecgonine methyl ester plasma concentration (mean) (cocaine; [13]): 85.0 ng/mL
Benzoylecgonine Plasma Concentration, Mean (cocaine; [14]): 26.0 ng/mL
Cocaine Plasma Concentration, Mean (cocaine; [14]): 68.5 ng/mL
Ecgonine methyl ester plasma concentration (mean) (cocaine; [14]): 49.2 ng/mL
Cocaine blood levels vs vehicle control (cocaine; 2 hours following AlbuBChE, 5- and 30-min time points): significantly reduced
Blood levels of BZ vs vehicle control (cocaine; 2 hr following AlbuBChE): not significant
Blood levels of EME vs vehicle control (cocaine; 2 hr following AlbuBChE, 5- and 30 min time point): elevated
Cocaine blood levels vs vehicle control (cocaine; 72 hours following AlbuBChE, 30-min post cocaine): significantly below control levels
Blood levels of EME vs vehicle control (cocaine; 72 hours following AlbuBChE, 30 min time point): significantly elevated
Cocaine blood levels vs vehicle control (cocaine; 96 hours following AlbuBChE, 5 or 30 min time point): not significant
Duration of decreased amount of cocaine in the blood (cocaine; Squirrel monkeys, 5 mg/kg): at least 72 hours
AlbuBChE antibody levels ([1]; following the first 2 injections, level of detection titer 20): below the level of detection
AlbuBChE antibody titer, individual monkeys ([1]; following the fourth injection): 21 and 43 and 643
Concentration of AlbuBChE in the blood, individual monkeys ([1]; one week following the AlbuBChE injection (fourth)): 27 ng/mL and 55 ng/mL and 53 ng/mL
VAS Bad Effects ([2]; following cocaine exposure): reduces the feeling of “bad effects”
Duration of decreased desire to use cocaine ([2]; single administration): up to one week
VAS Any Drug Effects ([2]; vs placebo): reduces the reporting of “any drug effects.”
VAS Desire for Cocaine ([2]; vs placebo): decreases the desire for cocaine
VAS Drug Liking ([2]; vs placebo): decreases cocaine liking
VAS Feeling Anxious ([2]; vs placebo): reduces feelings of anxiousness
VAS Feeling Rush ([2]; vs placebo): decreases subjective feeling of “rush”
VAS Good Effects ([2]; vs placebo): decreases the subjective feeling of “good effects”
VAS High ([2]; vs placebo): decreases the “high”
VAS Over-Stimulated ([2]; vs placebo): reduces feelings of being over-stimulated
VAS Overall Drug Liking ([2]; vs placebo): decreases overall drug liking
VAS Take Drug Again ([2]; vs placebo): decreases the desire to take cocaine again
